In the assay the test system is Helicobacter pylori. The assay is described as follows: activity against Helicobacter pylori (method of Iwahi et al., Columbia agar, growth period of 4 days). Type of assay: cell-based. The following applies: Columbia agar (Oxoid); for MIC50: 96 h, read-out: Approximate MIC50.

Consider five molecules from patent publication US6107312A, “Thiopyridines for use in the control of helicobacter bacteria” (BYK Gulden Lomberg Chemische Fabrik GmbH, priority 1994, dated 2000).

≈ marks a conversion by molar mass, not a printed value.

Regarding `C=CC(=O)n1c(SCc2nccc(SCc3ccco3)c2C)nc2ccccc21` [Compound 8, 1-Acryloyl-2-{[[4-(2-furylmethylthio)-3-methyl-2-pyridinyl]methyl]thio}benzimidazole], the MIC50 was approximately 0.1 µg/mL (≈ 0.237 µM). On the same count and under the same terms, to `Cc1c(SCc2ccco2)ccnc1CSc1nc2ccccc2n1S(C)(=O)=O` [Compound 10, 2-{[[4-(2-Furylmethylthio)-3-methyl-2-pyridinyl]methyl]thio}-1-methylsulfonyl-benzimidazole] belongs approximately 0.5 µg/mL (≈ 1.12 µM); to `CC(=O)n1c(SCc2nccc(SCc3ccco3)c2C)nc2ccccc21` [Compound 7, 1-Acetyl-2-{[[4-(2-furylmethylthio)-3-methyl-2-pyridinyl]methyl]thio}benzimidazole], approximately 0.5 µg/mL (≈ 1.22 µM); to `Cc1c(SCc2ccco2)ccnc1CSc1nc2cccnc2[nH]1` [Compound 1, 2-{[[4-(2-Furylmethylthio)-3-methyl-2-pyridinyl]methyl]thio}-1H-imidazo-[2,3-b]-pyridine], approximately 0.1 µg/mL (≈ 0.271 µM). Turning to `CCCC(=O)n1c(SCc2nccc(SCc3ccco3)c2C)nc2ccccc21` [Compound 9, 1-n-Butyroyl-2-{[[4-(2-furylmethylthio)-3-methyl-2-pyridinyl]methyl]thio}benzimidazole], the “Approximate MIC50” value is approximately 0.1 µg/mL.
